Results reported in US20200009125A1, “Pharmaceutical Compositions For Poorly Water-Soluble Compounds” (ASCENDIA PHARMACEUTICALS, LLC, priority 2013, published 2020).
≈ marks a conversion by molar mass, not a printed value.

Assays:
[1] = cited from earlier work; for pKa: Source: Drugbank or FDA
[2] = cited from earlier work; for aqueous solubility in water: Source: Drugbank

## COc1ccc(-n2nc(C(N)=O)c3c2C(=O)N(c2ccc(N4CCCCC4=O)cc2)CC3)cc1 [Apixaban, apixaban]
[1]; within pH range of 0.0-10.0, Source: Drugbank
  detectable pKa: no detectable pKa
[2]
  aqueous solubility in water: 40 to 50 µg/mL

## COC(=O)[C@H](c1ccccc1Cl)N1CCc2sccc2C1 [Clopidogrel, clopidogrel]
physchem; aqueous solution at pH 1.2, pH 1.2, simulated gastric fluid
  solubility: 5200 µg/mL (≈ 16200 µM)
physchem; aqueous solution at pH 6.8, pH 6.8, aqueous buffer
  solubility: 14 µg/mL (≈ 43.5 µM)
[1]
  pKa: 4.5

## O=C(O)Cc1ccccc1Nc1c(Cl)cccc1Cl [Diclofenac, diclofenac]
[2]; as sodium salt, intestinal fluid of neutral pH
  solubility in intestinal fluid of neutral pH: 1113 μg/mL

## CC(C)Cc1ccc(C(C)C(=O)O)cc1 (centres unmarked) [Ibuprofen, ibuprofen]
[2]; pH 1.2, drug alone, same figure as Drugbank water solubility
  solubility of ibuprofen alone at pH 1.2: 0.021 mg/mL

## CC(=O)Oc1cc2c(s1)CCN(C(C(=O)C1CC1)c1ccccc1F)C2 (centres unmarked) [Prasugrel, prasugrel]
[1]
  pKa: 5.48
[2]
  aqueous solubility in water: 2.37 µg/mL (≈ 6.35 µM)

## CCC(C)n1ncn(-c2ccc(N3CCN(c4ccc(OCC5COC(Cn6cncn6)(c6ccc(Cl)cc6Cl)O5)cc4)CC3)cc2)c1=O (centres unmarked) [itraconazole]
[2]; gastric fluid
  solubility in gastric fluid: 3500 µg/mL (≈ 4960 µM)
[2]; intestinal fluid
  solubility in intestinal fluid: 0.2 µg/mL (≈ 0.283 µM)
